In patent publication US20240269158A1, “THERAPEUTIC AGENTS AND METHODS FOR TREATMENT OF BARTONELLOSIS” (THE ADMINISTRATORS OF THE TULANE EDUCATIONAL FUND, priority 2021, published 2024):
Where two headings read alike, the source gives them in different places.

Key:
B. henselae = experiment: MIC assay in liquid culture media (OD600); type: cell-based, Bartonella henselae
Description: The B. henselae strains used were San Antonio 2, 267HO04, a human clinical isolate and B. vinsonii subsp. berkhoffii. Both the bacteria were initially grown on tryptic soy agar (TSA) supplemented with 5% defibrinated sheep blood plates that were either pre-made (Remel, R01198) or homemade, in a humidified atmosphere at 37° C. with 5% CO2 for 7 days. For the preparation of liquid cultures, an individual well-grown colony from the plate was resuspended in 15 ml Falcon tubes containing 3 mL of either Schneider's insect media supplemented with 10% FBS, or Grace's insect media (Gibco, 11605-094) supplemented with 10% FBS, or BAPGM serum-free liquid media. The cultures grew for 7 more days in the atmosphere as above without shaking. The number of viable bacteria was determined by either plating serial dilutions of the culture on plates for CFU or by live/dead staining. Before every experiment, bacteria were mixed well and passed through 22-gauge needle to break large clumps of bacteria.
Optical density (OD) of 7-day old bacterial liquid culture that was grown from an individual colony was measured using a spectrophotometer (Bio-Rad, SmartSpec 300, 170-2501). Bacterial culture was then diluted down to an OD of 0.1 ? 3×10^8 cfu/ml with the respective media.
To determine the MIC of the antibiotics and for the visualization of the bacterial growth, a clear 96-well plate was used. Into each well of a 96-well plate, 50 μl of the 0.1 OD bacterial culture and 50 μl of the liquid media containing antibiotics were added to the wells bringing the total volume to 100 μl of 0.05 OD bacteria (CFU ? 1.5×10^7) in each well. Wells containing only bacteria with solvent used in the dilution of the antibiotics served as a positive control to verify the growth of bacteria. As a negative control, wells containing only media and solvents were used. Each concentration of diluted antibiotic was run in 4 replicates to minimize the error rate. The 96-well plate was covered with the lid and incubated at 37° C. with 5% CO2. OD of the culture was read after 48 hrs and 96 hrs using a hybrid multi-mode microplate reader (Biotek, Synergy H4 hybrid reader) at OD600. The assay was repeated three times.
Therapeutic agent stocks were prepared in the following solvents: 10 mg/ml of ceftriaxone (USP), doxycycline (Fisher scientific, D9891-1G), gentamicin (Fisher scientific, 1405-41-0), ampicillin (Fisher scientific, 69-52-3) and azlocillin (Flightpath) in sterile cell culture grade water, whereas 5 mg/ml of azithromycin (Sigma, PZ0007-5MG) was dissolved in sterile cell culture grade DMSO. Antibiotics were then aliquoted and stored at either −80° C. or −20° C. until further use. On the day of assay, these stock concentrations were diluted to 1 mg/ml and 100 μg/ml in the respected bacterial culture media for MIC and cell-free, liquid culture MBC assays. For the DH82 cell-based MBC assay, antibiotics were diluted in EMEM media supplemented with 15% heat inactivated FBS.
The determination of susceptibility to therapeutic agents was performed in liquid culture media. Six different therapeutic agents were tested with multiple different concentrations against B. henselae and B. vinsonii. Therapeutic agent concentrations tested were as follows: Ceftriaxone 0.001, 0.01, 0.1, 0.3, 0.5, 1, 2, and 5 μg/ml; doxycycline 0.001, 0.01, 0.1, 0.3, 0.5, 1, 2, 5, and 10 μg/ml, gentamicin: 0.01, 0.1, 0.3, 0.5, 1, 2, 4, 8, and 16 μg/ml, and azithromycin: 0.001, 0.005, 0.02, 0.1, 0.3, 0.5, 1, 2, 5, and 10 μg/ml, were tested based on previous antibiotic susceptibility studies. The following azlocillin dilutions were included: 0.001, 0.005, 0.01, 0.02, 0.5, 1, 2, and 5 μg/ml. The ampicillin dilutions included were as follows: 0.001, 0.005, 0.01, 0.02, 0.5, 1, 2, 4, and 8 μg/ml. Both the species of Bartonella were susceptible to all the antibiotics that were used in BAPGM and Grace's culture liquid mediums. […]

[1] = system: B. henselae and B. vinsonii; experiment: Live/dead BacLight staining; type: cell-based, Bartonella; details: 10 μg/ml
Description: To determine the viability of the bacteria grown in liquid culture media, LIVE/DEAD BacLight™ Bacterial viability kit for microscopy (ThermoFisher, L7012) was used according to the manufacturer's protocol. Briefly, 7-day old liquid culture media was used for the determination of the viability. Initially, bacteria were diluted down to an optical density (OD) of 0.1 using the respective liquid culture media. 1 ml of 0.1 OD bacterial culture was then transferred into a 2 ml microcentrifuge tube and centrifuged at 7000 rpm for 10 min. After removing the supernatant, the pellet was resuspended in 1 ml of 0.85% NaCl and bacteria was pelleted again. After three washes, bacteria were resuspended in 1 ml of 0.85% NaCl and incubated with 1 μl of green-fluorescent nucleic acid dye (SYTO9) and 1 μl of red-fluorescent nucleic acid dye (PI) for 15 minutes. All the incubations were performed at room temperature and in the dark. After 15 minutes of incubation with both the dyes, bacteria were visualized under fluorescence microscopy and images were acquired using Nikon NIS elements software. Later, mean fluorescence intensity of both the SYTO9 and PI was measured using the Nikon elements software. Mean fluorescence values were acquired from a total of 10 images per experimental condition. To obtain dead cell counts, bacteria were treated with 70% isopropanol and incubated for 1 hr, while the sample was mixed for every 15 min and stained as above. Additionally, the entire staining protocol was repeated by staining the bacteria with PI first and then with SYTO9 both on dead and live bacteria and the fluorescence values were recorded accordingly. However, in the staining of therapeutic agent treated bacteria, both the dyes were pre-mixed into 1 ml of sterile-filtered distilled water, as previously described and 10 μl of the mixture was added into each well, incubated and visualized as described above.
Bacteria were stained with the live/dead BacLight™ kit to determine the viability of the bacteria before every experiment. […] Viability was also measured after 96 hours on control, untreated bacteria. […]

[2] = Bartonella henselae, BAPGM, read-out: MIC
[3] = Bartonella henselae, Grace's insect media, read-out: MIC
[4] = Bartonella henselae, Schneider's insect medium, read-out: MIC

Row | Compound | MIC (B. henselae; BAPGM) | MIC (B. henselae; Grace's insect media) | MIC (B. henselae; Schneider's insect medium) | live/dead staining signal of treated bacteria [1] | MIC (B. henselae; [2]) | MIC (B. henselae; [3]) | MIC (B. henselae; [4])
1 | gentamicin | 0.1 to 0.5 µg/mL | 2.0 to 4.0 µg/mL | >1 µg/mL |  |  |  | 
2 | CO/N=C(\C(=O)N[C@@H]1C(=O)N2C(C(=O)O)=C(CSc3nc(=O)c(=O)[nH]n3C)CS[C@H]12)c1csc(N)n1 [Ceftriaxone, ceftriaxone] |  |  |  | showed only SYTO9 signal | 0.01 to 0.1 µg/mL | 0.01 to 0.1 µg/mL | > 0.3 µg/mL
3 | CC1(C)S[C@@H]2[C@H](NC(=O)[C@H](NC(=O)N3CCNC3=O)c3ccccc3)C(=O)N2[C@H]1C(=O)O [Azlocillin, azlocillin] |  |  |  | showed only SYTO9 signal | 0.01 to 0.02 µg/mL | 0.005 to 0.01 µg/mL | > 2 µg/mL
4 | CC[C@H]1OC(=O)[C@H](C)[C@@H](O[C@H]2C[C@@](C)(OC)[C@@H](O)[C@H](C)O2)[C@H](C)[C@@H](O[C@@H]2O[C@H](C)C[C@H](N(C)C)[C@H]2O)[C@](C)(O)C[C@@H](C)CN(C)[C@H](C)[C@@H](O)[C@]1(C)O [Azithromycin, azithromycin] |  |  |  | showed only SYTO9 signal | 0.005 to 0.02 µg/mL | 0.3 to 0.5 µg/mL | > 0.02 µg/mL
